Drawing on PubChem BioAssay AID256 (DTP/NCI, 2004), this text covers T/C for 18 compounds.

The subject of the assay is CD2F1 mice, L1210 leukemia ip, survival T/C. The assay can be described thus: NCI In Vivo Anticancer Drug Screen. Data for tumor model L1210 Leukemia (intraperitoneal) in CD2F1 (CDF1) mice. As to conditions: higher = longer survival. The gist of the method: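 Tumor-bearing mice (transplanted tumor) were split into treated and vehicle control groups, and the measured endpoint of each treated group was divided by that of its vehicle controls.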

[1] abbreviates: endpoint: mean survival time, dose: 50.0 mg/kg/injection, schedule: Q01DX009 (ip), vehicle: saline with Tween-80.
Setting [2] is: endpoint: mean survival time, dose: 100.0 mg/kg/injection, schedule: Q01DX009 (ip), vehicle: saline with Tween-80.
[3] abbreviates: endpoint: mean survival time, dose: 200.0 mg/kg/injection, schedule: Q01DX009 (ip), vehicle: saline with Tween-80.
Setting [4] is: endpoint: mean survival time, dose: 100.0 mg/kg/injection, schedule: Q04DX003 (ip), vehicle: saline.
Setting [5] is: endpoint: mean survival time, dose: 200.0 mg/kg/injection, schedule: Q04DX003 (ip), vehicle: saline.
Where [6] appears, read: endpoint: mean survival time, dose: 100.0 mg/kg/injection, schedule: Q04DX003 (ip), vehicle: saline with Tween-80.
Setting [7] is: endpoint: mean survival time, dose: 200.0 mg/kg/injection, schedule: Q04DX003 (ip), vehicle: saline with Tween-80.
Where [8] appears, read: endpoint: mean survival time, dose: 400.0 mg/kg/injection, schedule: Q01DX009 (ip), vehicle: saline with Tween-80.
[9] abbreviates: endpoint: mean survival time, dose: 400.0 mg/kg/injection, schedule: Q04DX003 (ip), vehicle: saline with Tween-80.

Values joined by “and” are separate entries in the source; they are usually repeats but may differ in a detail not shown here. Equal entries are not always repeated. Inconclusive results and toxic doses are left out.

`S=P12N3CCN1CCN2CC3`: the T/C is, setting by setting: (endpoint: mean survival time, dose: 7.7 mg/kg/injection, schedule: Q01DX001 (ip), vehicle: water) 101 % of control; (endpoint: mean survival time, dose: 10.9 mg/kg/injection, schedule: Q01DX001 (ip), vehicle: water) 95 % of control; (endpoint: mean survival time, dose: 15.7 mg/kg/injection, schedule: Q01DX001 (ip), vehicle: water) 100 % of control; (endpoint: mean survival time, dose: 22.4 mg/kg/injection, schedule: Q01DX001 (ip), vehicle: water) 97 % of control; (endpoint: mean survival time, dose: 32.0 mg/kg/injection, schedule: Q01DX001 (ip), vehicle: water) 100 % of control; (endpoint: mean survival time, dose: 64.0 mg/kg/injection, schedule: Q01DX001 (ip), vehicle: saline) 95 % of control. Besides, where the note is “endpoint: mean survival time, dose: 128.0 mg/kg/injection, schedule: Q01DX001 (ip), vehicle: saline”, the T/C was 98 % of control.
Consider `CC1C2C=CC(C2)C1C(=O)O` (stereo not drawn), for which the T/C under setting [1] is 93 % of control; the T/C under setting [2] was 96 % of control and 98 % of control; the T/C under setting [3] was 100 % of control and 87 % of control.
Take `CN1CCN(CCCN2CC3CC=CCC3C2)CC1` (stereo not drawn): the T/C is, setting by setting: under setting [4], 105 % of control; under setting [5], 100 % of control.
On to `CCC(=O)[O][Bi]([c]1ccccc1)[c]1ccccc1`, for which the T/C reads like this: (endpoint: median survival time, dose: 3.12 mg/kg/injection, schedule: Q01DX009 (ip), vehicle: Klucel (hydroxypropylcellulose) (HPC)) 108 % of control; (endpoint: median survival time, dose: 6.25 mg/kg/injection, schedule: Q01DX009 (ip), vehicle: Klucel (hydroxypropylcellulose) (HPC)) 108 % of control; (endpoint: median survival time, dose: 12.5 mg/kg/injection, schedule: Q01DX009 (ip), vehicle: Klucel (hydroxypropylcellulose) (HPC)) 103 % of control; (endpoint: median survival time, dose: 25.0 mg/kg/injection, schedule: Q01DX009 (ip), vehicle: Klucel (hydroxypropylcellulose) (HPC)) 112 % of control and 111 % of control.
Turning to `O=C1C2CC=CC2C1(Cl)Cl` (stereo not drawn), the T/C is 91 % of control (endpoint: mean survival time, dose: 75.0 mg/kg/injection, schedule: Q01DX001 (ip), vehicle: saline); 94 % of control (endpoint: mean survival time, dose: 150.0 mg/kg/injection, schedule: Q01DX001 (ip), vehicle: saline); 91 % of control (endpoint: mean survival time, dose: 300.0 mg/kg/injection, schedule: Q01DX001 (ip), vehicle: saline).
`CC(CCc1ccc(S(=O)(=O)Cl)cc1)c1ccc(S(=O)(=O)Cl)cc1` (stereo not drawn): the T/C runs as follows: under setting [1], 106 % of control; under setting [2], 95 % of control; under setting [3], 91 % of control.
For `BrC(Br)(c1ccccc1)C1OCCO1`, the T/C (endpoint: mean survival time, dose: 50.0 mg/kg/injection, schedule: Q01DX001 (ip), vehicle: saline with Tween-80) was 107 % of control; the T/C (endpoint: mean survival time, dose: 50.0 mg/kg/injection, schedule: Q04DX003 (ip), vehicle: saline with Tween-80) was 100 % of control; the T/C (endpoint: mean survival time, dose: 100.0 mg/kg/injection, schedule: Q01DX001 (ip), vehicle: saline with Tween-80) was 100 % of control; the T/C under setting [6] is 101 % of control; the T/C (endpoint: mean survival time, dose: 200.0 mg/kg/injection, schedule: Q01DX001 (ip), vehicle: saline with Tween-80) was 102 % of control; the T/C under setting [7] is 97 % of control.
Turning to `NCCCOS(=O)(=O)O`, the T/C by setting is: under setting [2], 96 % of control; under setting [4], 98 % of control; under setting [3], 97 % of control; under setting [5], 101 % of control; under setting [8], 100 % of control; (endpoint: mean survival time, dose: 400.0 mg/kg/injection, schedule: Q04DX003 (ip), vehicle: saline) 95 % of control.
As for `CO[Si](c1ccccc1)(c1ccccc1)c1ccc(Br)cc1`, the T/C runs as follows: under setting [6], 96 % of control; under setting [7], 98 % of control; under setting [9], 102 % of control.
On to `Cc1ccc(C2CC(c3ccccc3)=NN2C)cc1` (stereo not drawn), for which the T/C (endpoint: mean survival time, dose: 75.0 mg/kg/injection, schedule: Q01DX001 (ip), vehicle: other) is 96 % of control; the T/C (endpoint: mean survival time, dose: 150.0 mg/kg/injection, schedule: Q01DX001 (ip), vehicle: other) was 90 % of control; the T/C (endpoint: mean survival time, dose: 300.0 mg/kg/injection, schedule: Q01DX001 (ip), vehicle: other) was 93 % of control.
As for `Cc1cc(=O)[nH]c(N/N=C/c2ccc(N(C)C)cc2)n1`, the T/C under setting [2] was 91 % of control; the T/C under setting [6] was 104 % of control; the T/C under setting [3] was 88 % of control; the T/C under setting [7] was 95 % of control; the T/C under setting [8] is 86 % of control; the T/C under setting [9] is 92 % of control.
On to `CC1C(C(=O)c2ccccc2)C(c2ccccc2)OP1(c1ccccc1)(c1ccccc1)c1ccccc1` (stereo not drawn), for which the T/C was 97 % of control (endpoint: mean survival time, dose: 6.25 mg/kg/injection, schedule: Q01DX001 (ip), vehicle: saline with Tween-80); 96 % of control (endpoint: mean survival time, dose: 12.5 mg/kg/injection, schedule: Q01DX001 (ip), vehicle: saline with Tween-80); 105 % of control (endpoint: mean survival time, dose: 25.0 mg/kg/injection, schedule: Q01DX001 (ip), vehicle: saline with Tween-80).
`CCOc1ccc(N2C(=O)CC(Sc3ccccc3N)C2=O)cc1` (stereo not drawn): the T/C (endpoint: mean survival time, dose: 100.0 mg/kg/injection, schedule: Q01DX009 (ip), vehicle: acetone) was 93 % of control; the T/C (endpoint: mean survival time, dose: 200.0 mg/kg/injection, schedule: Q01DX009 (ip), vehicle: acetone) is 104 % of control; the T/C (endpoint: mean survival time, dose: 400.0 mg/kg/injection, schedule: Q01DX009 (ip), vehicle: acetone) was 112 % of control.
In the case of `CCOC(=O)c1ccc2c(ccc[n+]2C)c1`, the T/C is, setting by setting: (endpoint: mean survival time, dose: 37.5 mg/kg/injection, schedule: Q01DX009 (ip), vehicle: saline with Tween-80) 112 % of control; (endpoint: mean survival time, dose: 75.0 mg/kg/injection, schedule: Q01DX009 (ip), vehicle: saline with Tween-80) 107 % of control; (endpoint: mean survival time, dose: 150.0 mg/kg/injection, schedule: Q01DX009 (ip), vehicle: saline with Tween-80) 103 % of control.
Turning to `NC(=O)c1ncn2c(=O)n(CCCl)nnc12`, the T/C (endpoint: median survival time, dose: 3.0 mg/kg/injection, schedule: Q01DX009 (ip), vehicle: saline) is 174 % of control; the T/C (endpoint: median survival time, dose: 3.12 mg/kg/injection, schedule: Q01DX009 (ip), vehicle: saline) is 212 % of control; the T/C (endpoint: median survival time, dose: 6.0 mg/kg/injection, schedule: Q01DX009 (ip), vehicle: saline) was 223 % of control; the T/C (endpoint: median survival time, dose: 6.25 mg/kg/injection, schedule: Q01DX009 (ip), vehicle: saline) was 184 % of control and 214 % of control and 365 % of control; the T/C (endpoint: median survival time, dose: 6.25 mg/kg/injection, schedule: Q01DX009 (ip), vehicle: suspension in saline) was 182 % of control; the T/C (endpoint: median survival time, dose: 12.0 mg/kg/injection, schedule: Q01DX009 (ip), vehicle: saline) is 352 % of control. The T/C runs as follows: (endpoint: median survival time, dose: 12.5 mg/kg/injection, schedule: Q01DX009 (ip), vehicle: saline) 222 % of control and 365 % of control (2×); (endpoint: median survival time, dose: 12.5 mg/kg/injection, schedule: Q01DX009 (ip), vehicle: suspension in saline) 322 % of control; (endpoint: median survival time, dose: 25.0 mg/kg/injection, schedule: Q01DX009 (ip), vehicle: suspension in saline) 322 % of control; (endpoint: median survival time, dose: 50.0 mg/kg/injection, schedule: Q01DX009 (ip), vehicle: suspension in saline) 100 % of control.
As to `CN(C)c1ccc(N=Nc2ccc(S(=O)(=O)O)cc2)cc1.CN(C)c1ccc(N=Nc2ccc(S(=O)(=O)O)cc2)cc1.O.O.[NH-]C1CCCCC1[NH-].[Pt+2]`, the T/C was 96 % of control (endpoint: median survival time, dose: 3.12 mg/kg/injection, schedule: Q04DX003 (ip), vehicle: saline); 106 % of control (endpoint: median survival time, dose: 6.25 mg/kg/injection, schedule: Q04DX003 (ip), vehicle: saline); 101 % of control (endpoint: median survival time, dose: 12.5 mg/kg/injection, schedule: Q04DX003 (ip), vehicle: saline); 100 % of control (endpoint: median survival time, dose: 25.0 mg/kg/injection, schedule: Q04DX003 (ip), vehicle: saline); 98 % of control (endpoint: median survival time, dose: 50.0 mg/kg/injection, schedule: Q04DX003 (ip), vehicle: saline); 105 % of control (endpoint: median survival time, dose: 100.0 mg/kg/injection, schedule: Q04DX003 (ip), vehicle: saline). Moreover, the T/C (endpoint: median survival time, dose: 200.0 mg/kg/injection, schedule: Q04DX003 (ip), vehicle: saline) is 115 % of control.
For `CO[C@@]12[C@@H]3N[C@@H]3CN1C1=C(C(=O)C(NCCN)=C(C)C1=O)[C@@H]2COC(N)=O`, the T/C is, setting by setting: (endpoint: median survival time, dose: 0.75 mg/kg/injection, schedule: Q01DX001 (ip), vehicle: water) 123 % of control and 110 % of control; (endpoint: median survival time, dose: 1.5 mg/kg/injection, schedule: Q01DX001 (ip), vehicle: water) 111 % of control; (endpoint: median survival time, dose: 6.0 mg/kg/injection, schedule: Q01DX001 (ip), vehicle: water) 94 % of control.
As for `CN(C)/C(N)=N\c1nc(O)cc(=O)[nH]1`, the T/C is 102 % of control (endpoint: mean survival time, dose: 100.0 mg/kg/injection, schedule: Q01DX001 (ip), vehicle: saline); 96 % of control (endpoint: mean survival time, dose: 200.0 mg/kg/injection, schedule: Q01DX001 (ip), vehicle: saline); 96 % of control (endpoint: mean survival time, dose: 400.0 mg/kg/injection, schedule: Q01DX001 (ip), vehicle: saline).
